How the values were obtained:
[1] = tested on: human neural cell line ReNcell VM; experiment: Cyquant cell viability assay, neural cell line, compound concentration screening; type: cell-based; settings: only this component's concentration changed
Protocol: 6-well culture plates were coated with 50 μg/mL polylysine (SIGMA, P6407) and incubated for more than 3 h at 37° C. in a thermostat after plate laying; then further coated with 5 μg/mL Laminin (I2020, SIGMAALDRICH) and incubated for more than 3 h at 37° C. in a thermostat after plate laying. Mouse primary cells and the human neural cell line ReNcell VM were cultured, where mouse primary cell isolation was performed according to the method described in Nature Protocols. Volume 7, pages 1741-1754 (2012). Cell culture conditions were 37° C., 5% carbon dioxide (Panasonic, MCO-18AC), and cell adherent culture. The culture medium of the present invention, Neuralbasal+I0% FBS and N2B27 culture medium were used for comparison, respectively. Cell passage was digested with 0.05% trypsin/EDTA at 37° C. for 5 min, and the cell digestion was terminated with DMEM+10% FBS. […]
(§1) The Cyquant assay is used for quantitative detection of cell viability to compare the effects of different medium components on the physiological state of cells during long-term cell culture. […] Samples were taken on day 1, day 5, day 15 and day 30, and cell viability assays were performed using CyQuant Kit (Invitrogen, X12223) and operated according to the instruction manual, and using SpectraMax i3 Multi-Mode Microplate Reader (VWR, model ID3-STD) for data reading. […]

induced cortical neurons = experiment: Cyquant cell viability assay during induction of cortical neurons; type: cell-based, human; settings: FIG. 6n; cortical neuron induction
Protocol: For cortical neuron differentiation, 6-well culture plates were coated with 50 μg/mL poly-Lysine (SIGMA, P6407) and incubated for more than 3 h in a 37° C. incubator after plate laying; then further coated with 3 μg/mL laminin (Laminin, 12020, SIGMAALDRICH) and incubated for more than 3 h at 37° C. after plate laying. The induced nerve stem cells obtained in Example 3 was re-inoculated into T25 culture plates at a rate of 1×105 per vial. Neural stem cells were cultured using NouvNeu culture medium at 37° C. and 5% CO2 (Panasonic, MCO-18AC), and the medium was replaced with fresh medium every three days until neurons formation on day 30. In the control experiment, N2B27 medium was used for neuron induction, and the specific operation steps were the same as above.
as §1, with “10,” for “5,”, “35,” for “30,”, “i3Multi-Mode” for “i3 Multi-Mode”, “Model” for “model”

Compound | use range of concentration in the medium (Cyquant) ([1]; FIG. 2d) [ng/mL] | use range of concentration in the medium (Cyquant) ([1]; FIG. 2b) [ng/mL] | use range of concentration in the medium (Cyquant) (induced cortical neurons) [µg/mL]
recombinant human transferrin: recombinant human transferrin, component of the NouvNeu medium | 50 to 200 | – | –
O=C[C@H](O)[C@@H](O)[C@@H](O)[C@H](O)CO [D(+)-galactose] | – | 5000 to 25000 | 5 to 25
